Columns and labels:
[1] = target: Sterol 14-alpha demethylase (Trypanosoma cruzi (strain CL Brener), UniProt Q7Z1V1); assay: GSK_TCAKS: pIC50 CYP51 from Trypanosoma cruzi.; type: functional
[2] = system: Trypanosoma cruzi; assay: (§1) GSK_TCAKS: pIC50 Trypanosoma cruzi Imaging: Amastigotes/Cell. […] Cells were then washed once with PBS before infection. T. cruzi trypomastigotes, collected at days 5 to 8 after infection from LLC-MK2 parasite infected cultures, were allowed to swim out for 4h at 37C from a centrifuged pellet (2,500 rpm/10 min/room temperature). Trypomastigotes were then collected and counted in a CASY Cell Counter. Trypomastigotes, in supplemented DMEM, were added to H9c2 cultures in a multiplicity of infection of 1 and incubated for 18 h. Cells were washed once with PBS before incubation of the infected H9c2 monolayer with trypsin (Life-Technologies) to detach cells from the flask. Cells were counted in a CASY Cell Counter using a 150 um capillary and their density set at 5 * 10^4 cells per mL in supplemented assay DMEM. Infected H9c2 were dispensed into 384-well poly-lysine coated assay plates at 50uL per well using a Multidrop Combi dispenser. After seeding them, the plates were incubated at 37C, 5% CO2 for 72h. Cultures were then fixed and stained by addition of 50 uL of a solution containing 8% formaldehyde and 4 uM DRAQ5 DNA dye (BioStatus, UK) per well. […] Five images were collected per well for reliable statistical analysis. Automated image analysis was performed with a script developed on Acapella High Content Imaging and Analysis Software (PerkinElmer). Output: number of amastigotes per cell as infection level measurement.; type: functional, organism-based, Rattus norvegicus; conditions: H9c2, 4 h
[3] = system: Leishmania donovani; assay: GSK_TCAKS: pIC50 Leishmania donovani viability assay using fluorescence intensity. Assay plates (1536-well) were prepared by adding 30nL per well of compound. For single shot assay, the final compound concentration was 5uM. […] Briefly, eGFP LdBOB axenic amastigotes were harvested, fixed and counted in a CASY cell counter (Roche-Applied Science). A final concentration of 1.5 * 10^5 cells per well were prepared in amastigote media containing 500 U/mL penicillin/streptomycin (Invitrogen) and 6uL was dispensed to each experimental well using a Multidrop Combi dispenser (Thermo Scientific). 6uL of assay media was dispensed to control columns used as reference for 100% compound response. Following incubation for 72 h at 37C, 5% CO2, 2 uL of resazurin was added to each well at a final concentration of 0.5 mM in phosphate buffered saline (PBS) with IGEPAL (Sigma-Aldrich), 0.05% (v/v).; type: functional, organism-based
[4] = system: Leishmania donovani; assay: (§2) GSK_TCAKS: pIC50 Leishmania donovani Imaging: Amastigotes/Macrophages. Assay plates (384-well) were prepared by adding 250nL of compound to each well. For single shot assay, the final compound concentration was 5 uM. […] Automated image analysis was performed with a script developed on Acapella High Content Imaging and Analysis Software (PerkinElmer). Output: Average number of amastigotes per macrophage cell were reported for each well.; type: functional, organism-based, Homo sapiens; conditions: THP-1
[5] = system: NIH3T3; assay: GSK_TCAKS: pIC50 NIH 3T3 cell line viability assay using luminiscence. Tissue culture surface treated assay plates (1536-well) were used. […] The 100% cells survival control was determined exposing the host-cells to a 0.5% DMSO concentration, whereas the 100% toxicity control was achieved by seeding the cells in presence of Amphotericin B at 50uM. Plates were incubated for four days at 37C, 5% CO2. The assay readout was developed by addition of 5uL of CellTiter-Glo Reagent following the manufacturer's instructions. Luminiscence was measured using a ViewLux.; type: functional, cell-based; conditions: Mus musculus, NIH3T3, 96 h
[6] = system: Leishmania donovani; assay: as §2, with “THP-1 Host Macrophages.” for “Amastigotes/Macrophages.”, “THP-1” for “Average number of amastigotes per macrophage”, “cell count” for “cell”; type: functional, organism-based, Homo sapiens
[7] = system: Trypanosoma cruzi; assay: as §1, with “H2C9” for “Trypanosoma cruzi”, “H9c2 Host Cardiomyocytes.” for “Amastigotes/Cell.”, “Number” for “number”, “H9c2 Host Cardiomyocytes nuclei to determine drug-related cytotoxicity.” for “amastigotes per cell as infection level measurement.”; type: functional, organism-based, Rattus norvegicus; conditions: H9c2, 4 h
[8] = GSK_TCAKS: pIC50 HepG2 human cell line viability assay using luminiscence. […] Seeding density was checked to ensure that new mono-layers were not more than 50% confluent at the time of harvesting. Cell suspension was added to 500 mL of the same medium at a final density of 1.2 * 10^5 cells/mL. This cell suspension was dispensed (25 uL, 3000 cells per well) into 384-well clear-bottom plates using a Multidrop Combi dispenser. Prior to addition of the cell suspension, the screening compounds (250 nL) were pre-dispensed into the plates with an Echo liquid handler. Plates were incubated for 48 h at 37C, 5% CO2. After incubation, plates equilibrated at room temperature for 30 min before proceeding to develop the luminescent signal. The signal developer, CellTiter-Glo Reagent, was allowed to equilibrate at room temperature for 30 min and added to the plates (25uL per well) using a Multidrop Combi dispenser. Plates were left for 10 min at room temperature for stabilization and then read using a ViewLux.; type: toxicity, cell-based
[9] = system: Trypanosoma brucei brucei; assay: GSK_TCAKS: pIC50 Trypanosoma brucei viability assay using luminiscence. Assay plates (1536-well) were prepared. T. brucei cultures were harvested and counted in a CASY cell counter. A parasite suspension was prepared at a final concentration of 5 * 10^4 cells/mL in complete HMI9 medium and 6uL was dispensed to all wells containing compounds using a Multidrop Combi dispenser. 6uL of HMI9 media with 0.4% DMSO were dispensed to control columns. Plates were incubated for 24 h at 37C, 5% CO2 then tempered for 10 min at room temperature. ATP content was quantified by adding 4 uL of CellTiter-Glo Reagent (Promega) according to the manufacturer's instructions. Luminescence was measured using a ViewLux.; type: functional, organism-based; conditions: Lister 427, CASY
[10] = system: Trypanosoma cruzi; assay: GSK_TCAKS: pIC50 Trypanosoma cruzi Imaging: Infected Cells. […] Cells were then washed once with PBS before infection. T. cruzi trypomastigotes, collected at days 5 to 8 after infection from LLC-MK2 parasite infected cultures, were allowed to swim out for 4h at 37C from a centrifuged pellet (2,500 rpm/10 min/room temperature). Trypomastigotes were then collected and counted in a CASY Cell Counter. Trypomastigotes, in supplemented DMEM, were added to H9c2 cultures in a multiplicity of infection of 1 and incubated for 18 h. Cells were washed once with PBS before incubation of the infected H9c2 monolayer with trypsin (Life-Technologies) to detach cells from the flask. Cells were counted in a CASY Cell Counter using a 150 um capillary and their density set at 5 * 10^4 cells per mL in supplemented assay DMEM. Infected H9c2 were dispensed into 384-well poly-lysine coated assay plates at 50uL per well using a Multidrop Combi dispenser. After seeding them, the plates were incubated at 37C, 5% CO2 for 72h. Cultures were then fixed and stained by addition of 50 uL of a solution containing 8% formaldehyde and 4 uM DRAQ5 DNA dye (BioStatus, UK) per well. […] Five images were collected per well for reliable statistical analysis. Automated image analysis was performed with a script developed on Acapella High Content Imaging and Analysis Software (PerkinElmer). Output: percentage of infected cells per well as a second infection marker.; type: functional, organism-based, Rattus norvegicus; conditions: H9c2, 4 h
[11] = system: Leishmania donovani; assay: as §2, with “Infected Macrophages.” for “Amastigotes/Macrophages.”, “Percent” for “Average number”, “infected” for “amastigotes per”, “cells” for “cell”; type: functional, organism-based, Homo sapiens; conditions: THP-1
[12] = system: Trypanosoma brucei brucei; assay: GSK_TCAKS: pIC50 Trypanosoma brucei viability assay using fluorescence intensity. Assay plates (1536-well) were prepared by dispensing 25nL of compound solution per well using an Echo acoustic dispenser (Labcyte).; type: functional, organism-based; conditions: Lister 427, 2 h
[13] = system: Trypanosoma cruzi; assay: GSK_TCAKS: pIC50 Trypanosoma cruzi viability assay using beta-GAL activity. This assay was run at single shot at 5uM compound concentration per well. The biological reagents consisted of NIH-3T3 host cells and trypomastigotes parasitic cells; both cell types were set to a 3.3 * 10^5 cells/mL dilution in assay DMEM by means of a CASY cell counter device using a 60um capillary. 6 uL of the mixture were dispensed per well (about 1 * 10^3 host-cells and 1 * 10^3 parasites) with a Multidrop Combi dispenser. […] In all wells, the percentage of DMSO never exceeded 0.5%. Plates incubated for four days at 37C, 5% CO2. The substrate used for the assay fluorescence intensity (FLINT) readout was resorufin-beta-D-galactopiranoside (Sigma-Aldrich) at 5uM per well. It was diluted in PBS supplemented with the soft detergent Igepal (Fluka).; type: functional, organism-based, Mus musculus; conditions: Tulahuen, NIH3T3

Sequence of Sterol 14-alpha demethylase (Q7Z1V1 whole entry): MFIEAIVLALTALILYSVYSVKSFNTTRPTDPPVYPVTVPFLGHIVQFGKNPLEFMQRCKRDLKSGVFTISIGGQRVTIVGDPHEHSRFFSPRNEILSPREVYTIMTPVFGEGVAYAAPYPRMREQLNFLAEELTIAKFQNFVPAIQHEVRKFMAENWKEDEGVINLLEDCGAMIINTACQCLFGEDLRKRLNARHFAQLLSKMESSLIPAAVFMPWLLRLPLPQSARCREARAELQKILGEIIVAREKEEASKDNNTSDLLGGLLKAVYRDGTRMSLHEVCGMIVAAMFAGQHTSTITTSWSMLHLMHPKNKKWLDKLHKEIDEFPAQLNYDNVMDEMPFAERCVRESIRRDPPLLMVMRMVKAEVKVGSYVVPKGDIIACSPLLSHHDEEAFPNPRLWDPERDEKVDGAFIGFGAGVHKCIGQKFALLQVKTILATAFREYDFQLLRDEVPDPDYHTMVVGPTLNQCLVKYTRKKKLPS

SMILES	IC50 [1] [µM]	IC50 [2] [µM]	IC50 [3] [µM]	IC50 [4] [µM]	IC50 [5] [µM]	IC50 [6] [µM]	IC50 [7] [µM]	IC50 at 48 h [8] [µM]	IC50 [9] [µM]	IC50 [10] [µM]	IC50 [11] [µM]	IC50 [12] [µM]	IC50 [13] [µM]
CS(=O)(=O)c1ccc(CC(=O)Nc2nc(-c3ccc(Cl)s3)cs2)cc1	> 100	0.398	> 50.1	> 50.1	> 50.1	15.8	15.8	> 100	> 39.8	0.316	> 50.1	10	0.398
COc1ccc(NS(=O)(=O)c2cc(-c3cc(C)n[nH]3)ccc2C)cc1OC	39.8	1.26	1	7.94	> 50.1	> 50.1	> 50.1	> 100	0.631	2	10	0.316	1.41
O=S(=O)(c1cccc(CSc2nnc(-c3ccc4c(c3)OCO4)o2)c1)N1CCOCC1	12.6	0.0398	0.501	0.251	15.8	> 50.1	25.1	> 100	> 39.8	0.1	0.794	31.6	0.224
O=C(Nc1ccc(C(=O)N2CCCC2c2ccc3c(c2)OCCCO3)cc1)c1ccco1 (stereo not given)	63.1	0.631	0.794	3.16	> 50.1	> 50.1	> 50.1	> 100	0.316	1	6.31	0.2	0.501
CC1CN(S(=O)(=O)c2ccc(NC(=O)c3cc(C4CC4)nc4c3cnn4C(C)C)cc2)CC(C)O1 (stereo not given)	> 100	0.631	20	> 50.1	> 50.1	10	> 50.1	> 100	6.31	0.794	> 50.1	6.31	0.631
O=C(NCCc1cccnc1)c1csc(-c2ccccc2)n1	0.0631	0.398	> 50.1	> 50.1	50.1	> 50.1	> 50.1	> 100	> 39.8	0.501	> 50.1	25.1	0.282
CC(=O)Nc1nc(-c2cc(C)ccc2C)c(C)s1	> 100	0.158	> 50.1	31.6	25.1	> 50.1	> 50.1	> 100	> 39.8	0.2	> 50.1	> 39.8	0.2
O=c1[nH]c(C=Cc2cccc(OCCOc3ccccc3)c2)nc(O)c1[N+](=O)[O-]	> 100	0.158	> 50.1	> 50.1	> 50.1	> 50.1	> 50.1	> 100	10	0.2	> 50.1	10	0.794
Cn1nccc1-c1cc(OC(CN)c2ccccc2)cnc1-c1ccco1 (stereo not given)	0.0631	0.1	> 50.1	31.6	20	15.8	> 50.1	50.1	15.8	0.1	> 50.1	12.6	0.398
CN(Cc1cc2ccccc2s1)c1ncc2c(N)nc(N)nc2n1	> 100	0.794	31.6	25.1	25.1	25.1	20	39.8	25.1	3.16	31.6	31.6	2
Clc1ccc(OCCN2CCCCC2c2cccnc2)c(Cl)c1 (stereo not given)	0.0631	0.158	5.01	5.01	25.1	> 50.1	> 50.1	79.4	> 39.8	0.2	> 50.1	31.6	0.398
O=C(NCCNc1noc(-c2ccc([N+](=O)[O-])cc2)n1)c1ccc(Cl)cc1	> 100	1.26	> 50.1	> 50.1	> 50.1	15.8	> 50.1	> 100	> 39.8	> 50.1	> 50.1	3.16	2
CN(Cc1cccnc1)Cc1ccc(N2CCN(C(=O)C3(c4ccc(Cl)cc4)CC3)CC2)nc1	0.158	1.26	31.6	> 50.1	7.94	10	> 50.1	> 100	25.1	1.58	> 50.1	31.6	0.501
COc1ccc(S(=O)(=O)NC(C)C)cc1Nc1ncc(-c2cccc(F)c2)cn1	> 100	0.316	6.31	> 50.1	5.01	> 50.1	> 50.1	> 100	> 39.8	0.398	> 50.1	20	0.631
O=C(NCCc1ccccc1Cl)c1cccn1-c1cccnc1	0.0794	0.501	6.31	> 50.1	31.6	> 50.1	> 50.1	> 100	> 39.8	0.501	> 50.1	31.6	0.398

From ChEMBL document CHEMBL3430912, “GSK Tres Cantos Anti-Kinetoplastid Screening (TCAKS) Data”
